Data set [1] is described as follows: Toxicity test, repeated subcutaneous administration to mice. The class given is in vivo, ddy male mice. The text has this: (§1) Thus, the medicament of the present invention is a safe medicament of extremely low toxicity and can be administered for a long period of time.
Data set [2] can be described thus: Toxicity test, repeated subcutaneous administration to rats. In kind it is in vivo, wister rats. As to conditions: 30 mg/kg subcutaneously for consecutive 21 days.
Description: as §1

The subject of another data set is REO virus type II. The data set is described as follows: Jerne plaque assay (antibody-forming cells against SRBC) in REO virus-infected new-born NC mice. The class given is in vivo. Conditions: 10⁵ PFU REO virus; MDP 20 µg/mouse with Freund incomplete adjuvant, given with SRBC 2 weeks after infection; measured 4 days later. As to the method:
Two weeks after the infection of 10⁵ PFU REO virus, sheep red blood cells (referred to hereinafter simply as SRBC) was intraperitoneally administered and 4 days after the administration, the number of hemolysis plaques was measured by way of Jerne plaque assay as a production amount of antibody-forming cells against SRBC. The number of hemolysis plaques was 15±2 per 10⁶ spleen cells in a group not infected with REO virus, while that was 2.8±1.6 in an infected group, thus showing a remarkable immunity inhibitory state. In compliance with this, atrophy of thymus and decrease in the number of thymic cortex lymphocytes were observed.
In a group to which muramyl dipeptide was administered in an amount of 20 µg/mouse together with Freund incomplete adjuvant, the number of hemolysis plaques was 11±2.
Next, recovery of the immune function by immunity-enhancing substance was examined, using new-born mice infected with REO virus type II. Two weeks after the infection of the mice with the virus, sheep red blood cells were administered to the mice, and 4 days after the administration, Jerne plaque assay was carried out to measure the number of hemolysis plaques. […]
Mice infected with virus was immunized at the same time with SRBC and an immunostimulant, and 4 days after the immunization, the number of hemolysis plaques was measured by Jerne plaque assay. […]

This note sets out measurements from EP0343258B1, “AGENT FOR PROPHYLAXIS AND TREATMENT OF VIRALLY INFECTED DISEASES” (MITSUI TOATSU CHEMICALS, Inc., priority 1987, dated 1989).

Non-standard residues stand in square brackets, D forms with d. Residues, ends and D or L forms follow the SMILES beside them. pGlu = O=C1CC[C@@H](C(=O)O)N1

`C[C@H](NC(=O)[C@@H]1CCC(=O)N1)C(=O)N[C@@H](CCCCN)C(=O)N[C@@H](CO)C(=O)N[C@@H](CCC(N)=O)C(=O)NCC(=O)NCC(=O)N[C@@H](CO)C(=O)N[C@@H](CC(N)=O)C(=O)O` [FTS, pGlu-Ala-Lys-Ser-Gln-Gly-Gly-Ser-Asn] ([pGlu]AKSQGGSN-OH): the toxicity entry in data set [1] (50 mg/kg and 100mg/kg subcutaneously for consecutive 14 days) is on record as “No toxicity was observed”. Moreover, the “abnormal symptom by external check” value in data set [1] (100 mg/kg subcutaneously every day for consecutive 14 days) is “no abnormal symptom was found”. Besides, in data set [2], the “abnormal symptom in external behavior observation, biochemical diagnosis of sera and pathological anatomy” value is reported as “no abnormal symptom was found”; the toxicity result is “No toxicity was observed”.
With `CC(=O)N[C@H]1C(O)O[C@H](CO)[C@@H](O)[C@@H]1O[C@H](C)C(=O)N[C@@H](C)C(=O)N[C@H](CCC(=O)O)C(N)=O` (some centres unmarked) [MDP, muramyl dipeptide], in the data set with REO virus type II, the PFC/10⁶ spleen cells came out at 11±2 PFC/10⁶ spleen cells.
